For this assay, the target named is T1, cellular PARG (Homo sapiens, UniProt Q86W56).
T1 construct: endogenous in cells; host or cells: HeLa
T1 sequence (Q86W56 whole entry): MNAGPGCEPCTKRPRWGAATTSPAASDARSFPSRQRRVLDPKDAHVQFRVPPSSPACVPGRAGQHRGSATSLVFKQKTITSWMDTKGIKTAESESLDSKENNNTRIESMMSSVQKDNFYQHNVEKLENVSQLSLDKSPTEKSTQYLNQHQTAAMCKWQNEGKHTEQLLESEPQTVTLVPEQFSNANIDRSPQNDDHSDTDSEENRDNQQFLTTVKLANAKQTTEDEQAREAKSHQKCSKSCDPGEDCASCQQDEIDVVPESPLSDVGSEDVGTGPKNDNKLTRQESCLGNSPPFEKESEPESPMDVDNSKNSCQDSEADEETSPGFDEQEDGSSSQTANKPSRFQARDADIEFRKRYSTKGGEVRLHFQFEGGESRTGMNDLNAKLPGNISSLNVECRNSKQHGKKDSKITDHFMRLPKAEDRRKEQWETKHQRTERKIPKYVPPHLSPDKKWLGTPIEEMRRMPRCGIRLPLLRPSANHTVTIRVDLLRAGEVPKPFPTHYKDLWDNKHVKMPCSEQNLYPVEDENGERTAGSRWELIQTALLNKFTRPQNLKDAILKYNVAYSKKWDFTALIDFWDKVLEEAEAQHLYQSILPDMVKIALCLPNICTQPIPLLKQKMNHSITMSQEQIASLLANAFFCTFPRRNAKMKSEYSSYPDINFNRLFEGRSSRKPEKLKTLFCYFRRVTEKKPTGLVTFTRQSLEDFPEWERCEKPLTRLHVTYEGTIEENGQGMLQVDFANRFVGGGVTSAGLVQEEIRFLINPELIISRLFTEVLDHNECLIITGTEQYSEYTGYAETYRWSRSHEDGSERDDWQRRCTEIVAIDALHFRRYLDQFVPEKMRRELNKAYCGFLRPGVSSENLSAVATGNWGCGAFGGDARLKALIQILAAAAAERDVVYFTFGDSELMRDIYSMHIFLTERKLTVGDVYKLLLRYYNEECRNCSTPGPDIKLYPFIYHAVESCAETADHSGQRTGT
Briefly: Nuclear PAR accumulation assay (immunofluorescence high-content imaging, MMS-treated HeLa cells). The class given is cell-based. Conditions: 1 hour compound then MMS 50 μg/mL for an additional hour. A digest of the protocol: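 HeLa cells pretreated with compound for 1 h at 37° C, then given 50 μg/mL MMS for another hour. After methanol fixation, PAR was immunostained with DAPI nuclear counterstain; per-nucleus intensity and percent PAR-positive cells were imaged at 20× (≥1,000 cells/well). IC50 from four-parameter logistic fit.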
`Cn1cc(CN2C(=O)c3cc(S(=O)(=O)NC4(C)CC4)ccc3N3C2=N[C@H]2CCOC[C@H]23)cn1` [Example 157, (7aS,1laS)-6-((1-methyl-1H-pyrazol-4-yl)methyl)-N-(1-methylcyclopropyl)-5-oxo-6,7a,8,9,11,11a-hexahydro-5H-pyrano[4′,3′:4,5]imidazo[1,2-a]quinazoline-3-sulfonamide] yielded an IC50 below 100 nM.
Next, `Cn1cc(CN2C(=O)c3cc(S(=O)(=O)NC4(C)CC4)ccc3N3C2=N[C@H]2COCC[C@H]23)cn1` [Example 158, (7aR,11aR)-6-((1-methyl-1H-pyrazol-4-yl)methyl)-N-(1-methylcyclopropyl)-5-oxo-5,6,7a,10,11,11a-hexahydro-8H-pyrano[3′,4′:4,5]imidazo[1,2-a]quinazoline-3-sulfonamide]: 100 to 1000 nM; `Cn1cc(CN2C(=O)c3cc(S(=O)(=O)NC4(C)CC4)ccc3N3C2=N[C@H]2CNCC[C@H]23)cn1` [Example 159, (7aS,11aR)-6-((1-methyl-1H-pyrazol-4-yl)methyl)-N-(1-methylcyclopropyl)-5-oxo-5,6,7a,8,9,10,11,11a-octahydropyrido[3′,4′:4,5]imidazo[1,2-a]quinazoline-3-sulfonamide]: 1000 to 10000 nM.
As to `Cn1cc(CN2C(=O)c3cc(S(=O)(=O)NC4(C)CC4)ccc3N3C2=N[C@H]2CCNC[C@H]23)cn1` [Example 160, (7aS,11aR)-6-((1-methyl-1H-pyrazol-4-yl)methyl)-N-(1-methylcyclopropyl)-5-oxo-5,6,7a,8,9,10,11,11a-octahydropyrido[4′,3′:4,5]imidazo[1,2-a]quinazoline-3-sulfonamide], the IC50 lay within 100 to 1000 nM.
Then `CN(C)C(=O)N1CC[C@@H]2N=C3N(Cc4cnn(C)c4)C(=O)c4cc(S(=O)(=O)NC5(C)CC5)ccc4N3[C@@H]2C1` [Example 161, (7aS,11aR)-N,N-dimethyl-6-((1-methyl-1H-pyrazol-4-yl)methyl)-3-(N-(1-methylcyclopropyl)sulfamoyl)-5-oxo-6,7a,8,9,11,1la-hexahydropyrido[4′,3′:4,5]imidazo[1,2-a]quinazoline-10(5H)-carboxamide], with 1000 to 10000 nM; and `C#CCn1cc(CN2C(=O)c3cc(S(=O)(=O)NC4(C)CC4)ccc3N3C2=NC[C@H]3C)cn1` [Example 162, (R)-1-methyl-N-(1-methylcyclopropyl)-5-oxo-4-((1-(prop-2-yn-1-yl)-1H-pyrazol-4-yl)methyl)-1,2,4,5-tetrahydroimidazo[1,2-a]quinazoline-7-sulfonamide], with below 100 nM.
The compound `[2H]C([2H])(c1cnn(C)c1)N1C(=O)c2cc(S(=O)(=O)NC3(C)CC3)ccc2N2C1=NC[C@H]2C#Cc1cnn(C)n1` [Example 163, (R)-4-((1-methyl-1H-pyrazol-4-yl)methyl-d2)-1-((2-methyl-2H-1,2,3-triazol-4-yl)ethynyl)-N-(1-methylcyclopropyl)-5-oxo-1,2,4,5-tetrahydroimidazo[1,2-a]quinazoline-7-sulfonamide] displayed an IC50 below 100 nM.
`CSCC#C[C@@H]1CN=C2N(Cc3cnn(C)c3)C(=O)c3cc(S(=O)(=O)NC4(C)CC4)ccc3N21` [Example 164, (R)-4-((1-methyl-1H-pyrazol-4-yl)methyl)-N-(1-methylcyclopropyl)-1-(3-(methylthio)prop-1-yn-1-yl)-5-oxo-1,2,4,5-tetrahydroimidazo[1,2-a]quinazoline-7-sulfonamide] registered an IC50 below 100 nM.
Regarding `Cn1cc(CN2C(=O)c3cc(S(=O)(=O)NC4(C)CC4)ccc3N3C2=NC[C@H]3C#Cc2ccnn2C)cn1` [Example 165, (R)-4-((1-methyl-1H-pyrazol-4-yl)methyl)-1-((1-methyl-1H-pyrazol-5-yl)ethynyl)-N-(1-methylcyclopropyl)-5-oxo-1,2,4,5-tetrahydroimidazo[1,2-a]quinazoline-7-sulfonamide], the IC50 is below 100 nM.
Next, `Cn1cc(CN2C(=O)c3cc(S(=O)(=O)NC4(C)CC4)ccc3N3C2=NC[C@H]3C#Cc2cnnn2C)cn1` [Example 166, (R)-1-((1-methyl-1H-1,2,3-triazol-5-yl)ethynyl)-4-((1-methyl-1H-pyrazol-4-yl)methyl)-N-(1-methylcyclopropyl)-5-oxo-1,2,4,5-tetrahydroimidazo[1,2-a]quinazoline-7-sulfonamide]: below 100 nM; `CN1C(=O)c2cc(S(=O)(=O)NC3(C)CC3)ccc2N2C1=NCC2C#Cc1cnc2ccccn12` (stereo not shown) [Example 167, 1-(imidazo[1,2-a]pyridin-3-ylethynyl)-4-methyl-N-(1-methylcyclopropyl)-5-oxo-1,2,4,5-tetrahydroimidazo[1,2-a]quinazoline-7-sulfonamide]: below 100 nM; `CN1C(=O)c2cc(S(=O)(=O)NC3(C)CC3)ccc2N2C1=NCC2C#Cc1c[nH]c2cnccc12` (stereo not shown) [Example 168, 1-((1H-pyrrolo[2,3-c]pyridin-3-yl)ethynyl)-4-methyl-N-(1-methylcyclopropyl)-5-oxo-1,2,4,5-tetrahydroimidazo[1,2-a]quinazoline-7-sulfonamide]: 100 to 1000 nM.
Turning to `CN1C(=O)c2cc(S(=O)(=O)NC3(C)CC3)ccc2N2C1=NCC2C#Cc1cc2cccnc2[nH]1` (stereo not shown) [Example 169, 1-((1H-pyrrolo[2,3-b]pyridin-2-yl)ethynyl)-4-methyl-N-(1-methylcyclopropyl)-5-oxo-1,2,4,5-tetrahydroimidazo[1,2-a]quinazoline-7-sulfonamide], the IC50 lay within 100 to 1000 nM.
Then `CN1C(=O)c2cc(S(=O)(=O)NC3(C)CC3)ccc2N2C1=NCC2C#Cc1ccnc2c1OCCO2` (stereo not shown) [Example 170, 1-((2,3-dihydro-[1,4]dioxino[2,3-b]pyridin-8-yl)ethynyl)-4-methyl-N-(1-methylcyclopropyl)-5-oxo-1,2,4,5-tetrahydroimidazo[1,2-a]quinazoline-7-sulfonamide], with below 100 nM; and `CN1C(=O)c2cc(S(=O)(=O)NC3(C)CC3)ccc2N2C1=NC[C@H]2C#Cc1cnc2ncccn12` [Example 171, (R)-1-(imidazo[1,2-a]pyrimidin-3-ylethynyl)-4-methyl-N-(1-methylcyclopropyl)-5-oxo-1,2,4,5-tetrahydroimidazo[1,2-a]quinazoline-7-sulfonamide], with 100 to 1000 nM.
On to `CN1C(=O)c2cc(S(=O)(=O)NC3(C)CC3)ccc2N2C1=NCC2C#Cc1ccc2nnn(C)c2c1` (stereo not shown) [Example 172, 4-methyl-1-((1-methyl-1H-benzo[d][1,2,3]triazol-6-yl)ethynyl)-N-(1-methylcyclopropyl)-5-oxo-1,2,4,5-tetrahydroimidazo[1,2-a]quinazoline-7-sulfonamide], for which the IC50 was below 100 nM.
Next, `C#C[C@@H]1[C@H](C)N=C2N(Cc3cnn(C)c3)C(=O)c3cc(S(=O)(=O)NC4(C)CC4)ccc3N21` [Example 173, (1R,2S)-1-ethynyl-2-methyl-4-((1-methyl-1H-pyrazol-4-yl)methyl)-N-(1-methylcyclopropyl)-5-oxo-1,2,4,5-tetrahydroimidazo[1,2-a]quinazoline-7-sulfonamide]: below 100 nM; `CN1C(=O)c2cc(S(=O)(=O)NC3(C)CC3)ccc2N2C1=NC[C@H]2C#Cc1c2ccccc2nn1C` [Example 174, (R)-4-methyl-1-((2-methyl-2H-indazol-3-yl)ethynyl)-N-(1-methylcyclopropyl)-5-oxo-1,2,4,5-tetrahydroimidazo[1,2-a]quinazoline-7-sulfonamide]: below 100 nM.
Then `CN1C(=O)c2cc(S(=O)(=O)NC3(C)CC3)ccc2N2C1=NCC2C#Cc1cnn(C)c(=O)c1` (stereo not shown) [Example 175, 4-methyl-1-((1-methyl-6-oxo-1,6-dihydropyridazin-4-yl)ethynyl)-N-(1-methylcyclopropyl)-5-oxo-1,2,4,5-tetrahydroimidazo[1,2-a]quinazoline-7-sulfonamide], with below 100 nM; and `CN1C(=O)c2cc(S(=O)(=O)NC3(C)CC3)ccc2N2C1=NCC2C#Cc1ccc2nccn2n1` (stereo not shown) [Example 176, 1-(imidazo[1,2-b]pyridazin-6-ylethynyl)-4-methyl-N-(1-methylcyclopropyl)-5-oxo-1,2,4,5-tetrahydroimidazo[1,2-a]quinazoline-7-sulfonamide], with 100 to 1000 nM.
Turning to `C[C@@H]1CN=C2N(Cc3cnn4c3CNCC4)C(=O)c3cc(S(=O)(=O)NC4(C)CC4)ccc3N21` [Example 177, (R)-1-methyl-N-(1-methylcyclopropyl)-5-oxo-4-((4,5,6,7-tetrahydropyrazolo[1,5-a]pyrazin-3-yl)methyl)-1,2,4,5-tetrahydroimidazo[1,2-a]quinazoline-7-sulfonamide], the IC50 is 100 to 1000 nM.
In the case of `CN1C(=O)c2cc(S(=O)(=O)NC3(C)CC3)ccc2N2C1=NCC2C#Cc1cnn2c1OCC1(COC1)C2` (stereo not shown) [Example 178, 1-((5′H,7′H-spiro[oxetane-3,6′-pyrazolo[5,1-b][1,3]oxazin]-3′-yl)ethynyl)-4-methyl-N-(1-methylcyclopropyl)-5-oxo-1,2,4,5-tetrahydroimidazo[1,2-a]quinazoline-7-sulfonamide], the IC50 lay in the range of 100 to 1000 nM.
Next, `CN1C(=O)c2cc(S(=O)(=O)NC3(C)CC3)ccc2N2C1=NCC2C#Cc1cnsc1` (stereo not shown) [Example 179, 1-(isothiazol-4-ylethynyl)-4-methyl-N-(1-methylcyclopropyl)-5-oxo-1,2,4,5-tetrahydroimidazo[1,2-a]quinazoline-7-sulfonamide]: below 100 nM.
As to `CN1C(=O)c2cc(S(=O)(=O)NC3(C)CC3)ccc2N2C1=NC[C@H]2C#Cc1cnc2ccc(C#N)nn12` [Example 180, (R)-1-((6-cyanoimidazo[1,2-b]pyridazin-3-yl)ethynyl)-4-methyl-N-(1-methylcyclopropyl)-5-oxo-1,2,4,5-tetrahydroimidazo[1,2-a]quinazoline-7-sulfonamide], the IC50 was below 100 nM.
Next, `COc1ccc2ncc(C#C[C@@H]3CN=C4N(C)C(=O)c5cc(S(=O)(=O)NC6(C)CC6)ccc5N43)n2n1` [Example 181, (R)-1-((6-methoxyimidazo[1,2-b]pyridazin-3-yl)ethynyl)-4-methyl-N-(1-methylcyclopropyl)-5-oxo-1,2,4,5-tetrahydroimidazo[1,2-a]quinazoline-7-sulfonamide]: below 100 nM.

The values above are taken from US20260285875A1, “INHIBITORS OF PARG” (858 Therapeutics, Inc., priority 2023, published 2026).
